# Measurements reported in ChEMBL document CHEMBL4665912, “Novel Compounds as STING Modulators for Treating Hepatitis B Virus Infections” (ACS Med Chem Lett, 2020).
# What was measured:
# [1] = target: T1, Stimulator of interferon genes protein (Homo sapiens, UniProt Q86WV6); experiment: Agonist activity at STING in human PBMC cells assessed as increase in […] by electrochemiluminescence assay; format: cell-based
# [2] = target: T1, Stimulator of interferon genes protein; experiment: Competitive binding affinity to human recombinant C-terminal Avi-tag STING using Alexa 488 probe incubated for 15 mins by FRET based assay
# T1 sequence (Q86WV6 whole entry): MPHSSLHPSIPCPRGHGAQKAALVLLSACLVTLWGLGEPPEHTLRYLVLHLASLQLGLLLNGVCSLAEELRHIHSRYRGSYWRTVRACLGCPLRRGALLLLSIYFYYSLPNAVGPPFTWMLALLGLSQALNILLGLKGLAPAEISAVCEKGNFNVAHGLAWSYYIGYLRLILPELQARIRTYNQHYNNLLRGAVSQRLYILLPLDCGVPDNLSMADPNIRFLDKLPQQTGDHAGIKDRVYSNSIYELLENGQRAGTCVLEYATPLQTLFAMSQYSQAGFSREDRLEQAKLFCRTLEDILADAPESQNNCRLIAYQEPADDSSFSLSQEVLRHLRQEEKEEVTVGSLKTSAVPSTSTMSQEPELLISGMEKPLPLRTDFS
Compound,EC50 [1] [nM],IC50 [2] [nM]
CCn1nc(C)cc1C(=O)/N=c1\n(C)c2ccccc2n1C/C=C/Cn1/c(=N/C(=O)c2cc(C)nn2CC)n(C)c2cccc(C(O)CO)c21 (configuration not stated),1,< 1
CCn1nc(C)cc1C(=O)/N=c1\n(C)c2cccc(OC)c2n1C/C=C/Cn1/c(=N/C(=O)c2cc(C)nn2CC)n(C)c2cccc(OCCCO)c21,< 1,< 1
CCn1nc(C)cc1C(=O)/N=c1\n(C)c2ccccc2n1C/C=C/Cn1/c(=N/C(=O)c2cc(C)nn2CC)n(C)c2c(CO)cccc21,< 1,< 1
CCn1nc(C)cc1C(=O)/N=c1\n(C)c2ccccc2n1C/C=C/Cn1/c(=N/C(=O)c2cc(C)nn2CC)n(C)c2cccc(CN3CCOCC3)c21,< 1,< 1
CCn1nc(C)cc1C(=O)/N=c1\n(C)c2ccccc2n1C/C=C/Cn1/c(=N/C(=O)c2cc(C)nn2CC)n(C)c2cccc(CN3CCCCCC3)c21,< 1,< 1
CCn1nc(C)cc1C(=O)/N=c1\n(C)c2ccccc2n1C/C=C/Cn1/c(=N/C(=O)c2cc(C)nn2CC)n(C)c2cccc(CN3CCCCC3)c21,< 1,< 1
